Measurements from patent US10399995B2, “1,4-Oxazines useful as selective BACE1 inhibitors” (Eli Lilly and Company, priority 2016, dated 2019).
Read-outs that look alike come from different tables or passages of the source.

Legend:
Human BACE1(1-460):Fc = molecular target: T1, Human BACE1(1-460):Fc (Homo sapiens, UniProt P56817); test: BACE1 FRET Assay; assay type: biochemical; settings: purified recombinant huBACE1:Fc, pH 4.6, mean ± standard deviation of the mean, n=13
T1 construct: made in house; host or cells: HEK293 (transient transfection, purified from conditioned media by Protein A)
T1 sequence (P56817 22-460): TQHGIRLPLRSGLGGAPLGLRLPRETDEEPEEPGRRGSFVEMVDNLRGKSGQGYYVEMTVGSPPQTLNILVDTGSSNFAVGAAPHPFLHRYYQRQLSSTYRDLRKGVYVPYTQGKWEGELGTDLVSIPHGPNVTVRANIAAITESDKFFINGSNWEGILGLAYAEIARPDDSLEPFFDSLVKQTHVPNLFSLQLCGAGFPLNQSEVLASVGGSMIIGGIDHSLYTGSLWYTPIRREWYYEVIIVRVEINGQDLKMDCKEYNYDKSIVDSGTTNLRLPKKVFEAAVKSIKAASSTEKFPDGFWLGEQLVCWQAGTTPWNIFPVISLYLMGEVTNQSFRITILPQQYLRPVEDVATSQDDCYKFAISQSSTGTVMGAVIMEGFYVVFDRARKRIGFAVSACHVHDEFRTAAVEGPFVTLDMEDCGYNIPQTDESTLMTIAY
Protocol: (§1) To assess selectivity of BACE1 over BACE2, the test compound is evaluated in FRET assays using specific substrates for BACE1 and BACE2 as described below. For in vitro enzymatic and cellular assays, the test compound is prepared in DMSO to make up a 10 mM stock solution. The stock solution is serially diluted in DMSO to obtain a ten-point dilution curve with final compound concentrations ranging from 10 μM to 0.05 nM in a 96-well round-bottom plate before conducting the in vitro enzymatic and whole cell assays.
(§2) Human BACE1 (accession number: AF190725) and human BACE2 (accession number: AF 204944) are cloned from total brain cDNA by RT-PCR. The nucleotide sequences corresponding to amino acid sequences #1 to 460 are inserted into the cDNA encoding human IgG1 (Fc) polypeptide (Vassar et al., Science, 286, 735-742 (1999)). […]
(§3) Conditioned media of HEK293 cells transiently transfected with huBACE1:Fc or huBACE2:Fc cDNA are collected. […] The purity of the final product is assessed by electrophoresis in 4-20% Tris-Glycine SDS-PAGE. […]
Serial dilutions of the test compound are prepared as described above. […] The RFU of the mixture at time 0 is recorded at excitation wavelength 355 nm and emission wavelength 460 nm, after brief mixing on a plate shaker. […] The RFU at the end of incubation is recorded with the same excitation and emission settings used at time 0. […]

human BACE2 (1-460):Fc = molecular target: T2, human BACE2 (1-460):Fc (Homo sapiens, UniProt Q9Y5Z0); test: BACE2 TMEM27 FRET Assay; assay type: biochemical
T2 construct: made in house; host or cells: HEK293 (transient transfection, purified from conditioned media by Protein A)
T2 sequence (Q9Y5Z0 21-460): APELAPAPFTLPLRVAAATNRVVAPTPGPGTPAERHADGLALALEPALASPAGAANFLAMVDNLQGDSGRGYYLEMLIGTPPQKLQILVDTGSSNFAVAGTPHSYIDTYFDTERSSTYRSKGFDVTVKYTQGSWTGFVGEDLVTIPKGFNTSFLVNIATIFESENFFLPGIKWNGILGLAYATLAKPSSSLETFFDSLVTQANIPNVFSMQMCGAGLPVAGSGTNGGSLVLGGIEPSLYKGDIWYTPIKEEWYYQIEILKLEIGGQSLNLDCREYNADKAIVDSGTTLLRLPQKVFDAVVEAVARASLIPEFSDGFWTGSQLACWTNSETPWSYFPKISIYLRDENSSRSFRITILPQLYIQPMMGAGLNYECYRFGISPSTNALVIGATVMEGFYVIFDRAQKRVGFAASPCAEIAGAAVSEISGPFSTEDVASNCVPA
Protocol: as §1, §2, §3
Serial dilutions of test compound are prepared as described above. […] The RFU of the mixture at time 0 is recorded at excitation wavelength 430 nm and emission wavelength 535 nm. […] The RFU at the end of incubation is recorded with the same excitation and emission settings used at time 0. […]

BACE1 = molecular target: T3, BACE1 (Homo sapiens, UniProt P56817); test: SH-SY5YAPP695Wt Whole Cell Assay; assay type: cell-based; settings: SH-SY5Y cells expressing human APP695Wt, 24 hours, conditioned media, mean ± standard deviation of the mean, n=3
T3 construct: endogenous in cells; host or cells: SH-SY5Y (ATCC CRL2266) stably expressing human APP695Wt
T3 sequence (P56817 46-501): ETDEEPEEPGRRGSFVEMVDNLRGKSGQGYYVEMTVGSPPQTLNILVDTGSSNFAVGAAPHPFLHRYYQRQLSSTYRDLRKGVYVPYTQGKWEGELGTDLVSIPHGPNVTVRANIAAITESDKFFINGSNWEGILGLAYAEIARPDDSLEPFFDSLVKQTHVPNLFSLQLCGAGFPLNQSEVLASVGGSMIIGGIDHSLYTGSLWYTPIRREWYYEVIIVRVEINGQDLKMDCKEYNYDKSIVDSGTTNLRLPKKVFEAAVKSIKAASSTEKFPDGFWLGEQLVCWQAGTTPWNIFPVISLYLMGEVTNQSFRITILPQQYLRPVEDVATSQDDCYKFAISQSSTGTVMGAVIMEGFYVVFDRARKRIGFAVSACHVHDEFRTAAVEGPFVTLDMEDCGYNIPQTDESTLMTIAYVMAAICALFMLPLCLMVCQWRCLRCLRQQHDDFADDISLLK
Protocol: as §1
The routine whole cell assay for the measurement of inhibition of BACE1 activity utilizes the human neuroblastoma cell line SH-SY5Y (ATCC Accession No. CRL2266) stably expressing a human APP695Wt cDNA. Cells are routinely used up to passage number 6 and then discarded.
SH-SY5YAPP695Wt cells are plated in 96 well tissue culture plates at 5.0×10^4 cells/well in 200 μL culture media (50% MEM/EBSS and Ham's F12, 1× each sodium pyruvate, non-essential amino acids and NaHCO3 containing 10% FBS). The following day, media is removed from the cells, fresh media added then incubated at 37° C. for 24 hours in the presenceabsence of test compound at the desired concentration range.
At the end of the incubation, conditioned media are analyzed for evidence of beta-secretase activity by analysis of Abeta peptides 1-40 and 1-42 by specific sandwich ELISAs. […]

C[C@@]1(c2cc(NC(=O)c3nc4ccc(C#N)nc4s3)ccc2F)CO[C@@](C)(C(F)(F)F)C(N)=N1 [Example 1, N-[3-[(3R,6R)-5-Amino-3,6-dimethyl-6-(trifluoromethyl)-2H-1,4-oxazin-3-yl]-4-fluoro-phenyl]-5-cyano-thiazolo[5,4-b]pyridine-2-carboxamide]
IC50 (Human BACE1(1-460):Fc): 8.18 nM | IC50 (human BACE2 (1-460):Fc; TMEM27 LucY FRET assay, huBACE2:Fc, pH 4.6, mean ± standard deviation of the mean, n=6): 446 nM | ratio of BACE1 (FRET IC50 enzyme assay) to BACE2 (TMEM27 LucY FRET assay) (human BACE2 (1-460):Fc; selectivity for BACE1 over BACE2): approximately 50 fold | IC50 (BACE1; read-out: IC50 for SH-SY5YAPP695Wt A-beta (1-40) ELISA): 1.88 nM | IC50 (BACE1; read-out: IC50 for SH-SY5YAPP695Wt A-beta (1-42) ELISA): 3.55 nM
